Results reported in patent publication US8557832B2, “Aryl methyl benzoquinazolinine M1 receptor positive allosteric modulators” (Merck Sharp & Dohme Corp., priority 2008, dated 2013).

What follows are compounds tested against T1, acetylcholine muscarinic M1 receptor (Homo sapiens, UniProt P11229) (assay: muscarinic FLIPR assay: potentiation of acetylcholine (EC20)-stimulated intracellular Ca2+ in CHOnfat/hM1 cells). Settings: 4 min preincubation, then EC20 acetylcholine (3 nM final), read-out: IP Value (inflection point).
T1 construct: expressed in transfected cells; host or cells: CHOnfat (CHO cells; also called CHOK1/hM1)
T1 sequence (P11229 1-460): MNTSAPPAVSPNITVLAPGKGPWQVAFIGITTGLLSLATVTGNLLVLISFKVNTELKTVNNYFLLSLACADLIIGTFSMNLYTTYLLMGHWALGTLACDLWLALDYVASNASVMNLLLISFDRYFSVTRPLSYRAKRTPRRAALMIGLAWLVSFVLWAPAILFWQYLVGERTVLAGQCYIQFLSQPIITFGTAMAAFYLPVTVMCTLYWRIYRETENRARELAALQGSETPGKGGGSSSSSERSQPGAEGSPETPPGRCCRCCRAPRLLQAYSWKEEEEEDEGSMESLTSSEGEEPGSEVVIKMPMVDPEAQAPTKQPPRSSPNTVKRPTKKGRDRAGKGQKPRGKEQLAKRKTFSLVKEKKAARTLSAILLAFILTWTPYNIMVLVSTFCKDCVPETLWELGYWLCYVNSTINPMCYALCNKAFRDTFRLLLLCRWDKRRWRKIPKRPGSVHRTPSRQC
Assay type: cell-based
Method: The assay studies the effect of one or several concentrations of test compounds on basal or acetylcholine-stimulated Ca^2+ levels using FLIPR.
Compounds are prepared and subjected to a preincubation period of 4 min. Thereafter, a single EC20 concentration of acetylcholine is added to each well (3 nM final). The intracellular Ca^2+ level of each sample is measured and compared to an acetylcholine control to determine any modulatory activity.
Cells: CHOnfat/hM1, hM2, hM3 or hM4 cells are plated 24 hr before the assay at a density of 18,000 cells/well (100 μL) in a 384 well plate. CHOnfat/hM1 and CHOnfat/hM3 Growth Medium: 90% DMEM (Hi Glucose); 10% HI FBS; 2 mM L-glutamine; 0.1 mM NEAA; Pen-Strep; and 1 mg/ml Geneticin, are added. For M2Gqi5CHOnfat and M4Gqi5CHOnfat cells, an additional 600 ug/ml hygromycin is added.
Equipment: 384 well plate, 120 μL addition plate; 96-well Whatman 2 ml Uniplate Incubator, 37° C., 5% CO2; Skatron EMBLA-384 Plate Washer; Multimek Pipetting System; Genesis Freedom 200 System; Mosquito System; Temo Nanoliter Pipetting System; and FLIPR^384 Fluorometric Imaging Plate Reader System are used.
Buffers. Assay Buffer: Hanks Balanced Salt Solution, with 20 mM Hepes, 2.5 mM Probenecid (Sigma P-8761) first dissolved in 1 N NaOH, 1% Bovine Serum Albumin (Sigma A-9647). Dye Loading Buffer: Assay Buffer plus 1% Fetal Bovine Serum and Fluo-4AM/Pluronic Acid Mixture. 2 mM Fluo-4AM ester stock in DMSO (Molecular Probes F-14202) Concentration of 2 μM in buffer for a final concentration of 1 μM in Assay. 20% Pluronic Acid Solution stock, with concentration of 0.04% in Buffer, 0.02% in Assay.
65 μL of 2 mM Fluo-4AM are mixed with 130 μL of 20% Pluronic Acid. The resulting solution and 650 μL FBS is added to the assay buffer for a total volume of 65 mL. Positive Controls: 4-Br-A23187: 10 mM in DMSO; final concentration 10 μM. Acetylcholine: 10 mM in water, working stock at both 20 μM and 30 μM in assay buffer, final concentration of 10 μM. This is used to check the maximum stimulation of the CHOK1/hM1 cells. 20 μM (2×) acetylcholine is added in the preincubation part of the assay, and the 30 μM (3×) stock is added in the second part. (EC20) Acetylcholine: 10 mM in water, working stock of 9 nM (3×), and final concentration in assay is 3 nM. This is used after the preincubation with test compounds. Addition of the EC20 Acetylcholine to each well with a test compound will ascertain any modulator activity. 24 wells contain 3 nM Acetylcholine alone as a control.
Determining Activity of Putative Compounds:
Screening Plate: Compounds are titrated in 96-well plates (columns 2-11), 100% DMSO, started at a concentration of 15 mM (150× stock concentration), and 3-fold serial dilutions using Genesis Freedom200 System. Four 96-well plates are combined into a 384-well plate using Mosquito Nanolitre Pipetting System by transferring 1 μl of serial diluted compounds to each well, and 1 mM acetylcholine (100× stock concentration) were added as a control. Using Temo, 49 μl assay buffer is added to each well of the 384-well plate right before assay.
In a 96-well Whatman 2 ml Uniplate, 9 nM Acetylcholine (3×) is pipetted into wells corresponding to the screening compounds, and into control wells. The 30 μM acetylcholine control (3×) is added into control wells, and the 3× agonist plate is transferred into a 384 well plate.
Cells are washed three times with 100 μL of buffer, leaving 30 μL of buffer in each well. Using Multimek, 30 μL of Dye Loading Buffer is added into each well and incubated at 37° C., 5% CO2 for up to one hr.
After 60 min, the cells are washed three times with 100 μL of buffer, leaving 30 μL of buffer in each well. The cell plate, screening plate, and agonist addition plates are placed on the platform in the FLIPR and the door closed. A signal test to check background fluorescence and basal fluorescence signal is performed. Laser intensity is adjusted if necessary. […]

EC50 | Compound
1.8 µM | COc1ccc(Cc2cc3c(=O)n(-c4cc(C)[nH]n4)cnc3c3ccccc23)cc1 [Example 3]
0.074 µM | N#Cc1ccc(Cc2cc3c(=O)n([C@H]4CCCC[C@@H]4O)cnc3c3ccccc23)cn1 (racemic) [Example 7, rac-5-({3-[trans-2-hydroxycyclohexyl]-4-oxo-3,4-dihydrobenzo[h]quinazolin-6-yl}methyl)pyridine-2-carbonitrile]
0.024 µM | O=c1c2cc(Cc3ccc(CO)nc3)c3ccccc3c2ncn1[C@H]1CCCC[C@@H]1O (racemic) [Example 15, rac-3-[trans-2-hydroxycyclohexyl]-6-{[6-(hydroxymethyl)pyridine-3-yl]methyl}benzo[h]quinazolin-4(3H)-one]
0.093 µM | CS(=O)(=O)c1ccc(Cc2cc3c(=O)n([C@H]4CCCC[C@@H]4O)cnc3c3ccccc23)cn1 (racemic) [Example 8, rac-3-[trans-2-hydroxycyclohexyl]-6-{[6-methylsulfonyl)pyridine-3-yl]methyl}benzo[h]quinazolin-4(3H)-one]
1.3 µM | O=C1CCCCC1n1cnc2c(cc(Cc3ccc(Cl)nc3)c3ccccc32)c1=O (stereo not shown) [Example 10, 6-[(6-chloropyridin-3-yl)methyl]-3-(2-oxycyclohexyl)benzo[h]quinazolin-4(3H)-one]
0.008 µM | Cn1cc(-c2ccc(Cc3cc4c(=O)n([C@H]5CCCC[C@@H]5O)cnc4c4ccccc34)cn2)cn1 (racemic) [Example 5, rac-3-[trans-2-hydroxycyclohexyl]-6-{[6-(1-methyl-1H-pyrazol-4-yl)pyridine-3-yl]methyl}benzo[h]quinazolin-4(3H)-one]
0.031 µM | O=c1c2cc(Cc3ccc(-n4cccn4)nc3)c3ccccc3c2ncn1[C@H]1CCCC[C@@H]1O (racemic) [Example 6, rac-3-[trans-2-hydroxycyclohexyl]-6-{[6-(1H-pyrazol-1-yl)pyridin-3-yl]methyl}benzo[h]quinazolin-4(3H)-one]
3.5 µM | COc1ccc(Cc2cc3c(=O)n(-c4cccnc4)cnc3c3ccccc23)cc1 [Example 4, 6-(4-methoxybenzyl)-3-pyridin-3-ylbenzo[h]quinazolin-4(3H)-one]
> 10 µM | CC(=O)N[C@H]1CCCC[C@@H]1n1cnc2c(cc(Cc3ccc(Cl)nc3)c3ccccc32)c1=O [Example 12, N-{(1S,2S)-2-[6-[(6-chloropyridin-3-yl)methyl]-4-oxobenzo[h]quinazolin-3(4H)-yl]cyclohexyl}acetamide]
3.6 µM | CC(=O)O[C@H]1CCCC[C@@H]1n1cnc2c(cc(Cc3ccc(Cl)nc3)c3ccccc32)c1=O (racemic) [Example 11, trans-2-[6-[(6-chloropyridin-3-yl)methyl]-4-oxobenzo[h]quinazolin-3(4H)-yl]cyclohexyl rac-acetate]
0.021 µM | CC(C)c1ccc(Cc2cc3c(=O)n([C@H]4CCCC[C@@H]4O)cnc3c3ccccc23)cn1 [Example 13]
0.084 µM | Cn1cc(Cc2cc3c(=O)n([C@H]4CCCC[C@@H]4O)cnc3c3ccccc23)ccc1=O (racemic) [Example 16, rac-3-[trans-2-hydroxycyclohexyl]-6-[(1-methyl-6-oxo-1,6-dihydropyridin-3-yl)methyl]benzo[h]quinazolin-4(3H)-one]
0.228 µM | O=c1c2cc(Cc3ccccn3)c3ccccc3c2ncn1[C@H]1CCCC[C@@H]1O [Example 18, 3-[(1S,2S)-2-hydroxycyclohexyl]-6-(pyridin-2-ylmethyl)benzo[h]quinazolin-4(3H)-one]
0.073 µM | COc1ccc(Cc2cc3c(=O)n([C@H]4CCCC[C@@H]4O)cnc3c3ccccc23)cn1 (racemic) [Example 9, rac-3-[trans-2-hydroxycyclohexyl]-6-[(6-methoxypyridin-3-yl)methyl]benzo[h]quinazolin-4(3H)-one]
0.046 µM | CC(C)(O)c1ccc(Cc2cc3c(=O)n([C@H]4CCCC[C@@H]4O)cnc3c3ccccc23)cn1 [Example 14]
1.43 µM | Cc1nc2c(cc(Cc3ccc(Cl)nc3)c3ccccc32)c(=O)n1[C@H]1CCCC[C@@H]1O [Example 19, 6-[(6-chloropyridin-3-yl)methyl]-3-[(1S,2S)-2-hydroxycyclohexyl]-2-methylbenzo[h]quinazolin-4(3H)-one]

Compound | EC50
Cc1ccc(Cc2cc3c(=O)n([C@H]4CCCC[C@@H]4O)cnc3c3ccccc23)c[n+]1[O-] [Example 17, 3-[(1S,2S)-2-hydroxycyclohexyl]-6-[(6-methyl-1-oxidopyridin-3-yl)methyl]benzo[h]quinazolin-4(3H)-one] | 0.063 µM
Cc1ccc(Cc2cc3c(=O)n([C@H]4CCCC[C@@H]4O)cnc3c3ccccc23)cn1 (racemic) [Example 1, rac-3-[trans-2-hydroxycyclohexyl]-6-[(6-methylpyridin-3-yl)methyl]benzo[h]quinazolin-4(3H)-one] | 0.051 µM
Cc1ccc(Cc2cc3c(=O)n([C@H]4CCCC[C@@H]4O)cnc3c3ccccc23)cn1 [Example 2, 3-[(1S,2S)-2-hydroxycyclohexyl]-6-[(6-methylpyridin-3-yl)methyl]benzo[h]quinazolin-4(3H)-one] | 0.021 µM
